One assay has as its system HCV replicon 1a WT. The assay can be described thus: Cell-based HCV replicon assay, 1a WT. The settings on record: Hepatitis C virus, 72 h; replicon cells, harvested day 3, replicon RNA by real time PCR (Taqman). The protocol:
(§1) To measure cell-based anti-HCV activity of selected compounds of the present invention, replicon cells were seeded at 5000 cells/well in 96-well collagen I-coated Nunc plates in the presence of the test compound. Various concentrations of test compound, typically in 10 serial 2-fold dilutions, were added to the assay mixture, with the starting concentration ranging from 250 μM to 1 μM. The final concentration of DMSO was 0.5%, fetal bovine serum was 5%, in the assay media. Cells were harvested on day 3 by the addition of 1× cell lysis buffer (Ambion cat #8721). The replicon RNA level was measured using real time PCR (Taqman assay). The amplicon was located in 5B. The PCR primers were: 5B.2F, ATGGACAGGCGCCCTGA (SEQ. ID. NO. 1); 5B.2R, […] (SEQ. ID. NO. 2); the probe sequence was FAM-labeled CACGCCATGCGCTGCGG (SEQ. ID. NO. 3). GAPDH RNA was used as endogenous control and was amplified in the same reaction as NS5B (multiplex PCR) using primers and VIC-labeled probe recommended by the manufacturer (PE Applied Biosystem). The real-time RT-PCR reactions were run on ABI PRISM 7900HT Sequence Detection System using the following program: 48° C. for 30 minutes, 95° C. for 10 minutes, 40 cycles of 95° C. for 15 sec, 60° C. for 1 minutes. The ΔCT values (CT5B-CTGAPDH) were plotted against the concentration of test compound and fitted to the sigmoid dose-response model using XLfit4 (MDL). […] Alternatively, to quantitate the absolute amount of replicon RNA, a standard curve was established by including serially diluted T7 transcripts of replicon RNA in the Taqman assay. All Taqman reagents were from PE Applied Biosystems. Such an assay procedure was described in detail in e.g. Malcolm et al., Antimicrobial Agents and Chemotherapy 50: 1013-1020 (2006).
(§2) HCV replicon assay data was calculated for selected compounds of the present invention using this method and is provided in the table below.

For the next assay, the system named is HCV replicon 1a Y93H. The assay can be described thus: Cell-based HCV replicon assay, 1a Y93H. The settings on record: Hepatitis C virus, 72 h, read-out: Replicon EC50 1a Y93H. On the procedure:
as §1, §2

The subject of the next assay is HCV replicon 1b WT. The assay can be described thus: Cell-based HCV replicon assay, 1b WT. The settings on record: Hepatitis C virus, 72 h; replicon cells, harvested day 3, replicon RNA by real time PCR (Taqman). On the procedure: as §1, §2
A further assay has as its system HCV replicon 1b Y93H. Nature of the assay: Cell-based HCV replicon assay, 1b Y93H. The settings on record: Hepatitis C virus, 72 h, read-out: Replicon EC50 1b Y93H. The protocol: as §1, §2
For a further assay, the system named is HCV replicon 2a WT. Nature of the assay: Cell-based HCV replicon assay, 2a WT. The settings on record: Hepatitis C virus, 72 h; replicon cells, harvested day 3, replicon RNA by real time PCR (Taqman). The protocol: as §1, §2
A further assay concerns HCV replicon 3a WT. The assay can be described thus: Cell-based HCV replicon assay, 3a WT. The settings on record: Hepatitis C virus, 72 h; replicon cells, harvested day 3, replicon RNA by real time PCR (Taqman). On the procedure: as §1, §2
For another assay, the system named is HCV replicon 4a WT. The assay can be described thus: Cell-based HCV replicon assay, 4a WT. The settings on record: Hepatitis C virus, 72 h; replicon cells, harvested day 3, replicon RNA by real time PCR (Taqman). The protocol: as §1, §2
In a further assay the test system is HCV replicon 2b WT. The assay can be described thus: Cell-based HCV replicon assay, 2b WT. The settings on record: Hepatitis C virus, 72 h; replicon cells, harvested day 3, replicon RNA by real time PCR (Taqman). The protocol:
as §1, §2

Consider `COC(=O)N[C@H](C(=O)N1CCC[C@H]1c1ncc(-c2ccc3c(c2)Oc2ccc(-c4cnc([C@@H]5CCCN5C(=O)[C@@H](NC(=O)OC)C(C)C)[nH]4)c4ccn-3c24)[nH]1)C(C)C` [Compound 1, Methyl [(2S)-1-{(2S)-2-[5-(3-{2-[(2S)-1-{(2S)-2-[(methoxycarbonyl)amino]-3-methyl-butanoyl}pyrrolidin-2-yl]-1H-imidazol-5-yl}pyrrolo[3,2,1-kl]phenoxazin-8-yl)-1H-imidazol-2-yl]pyrrolidin-1-yl}-3-methyl-1-oxobutan-2-yl]carbamate], for which the half-maximal effective concentration (EC50) amounted to 0.0107 nM with HCV replicon 1a WT; 41.7 nM in the assay with HCV replicon 1a Y93H; 0.009 nM in the assay with HCV replicon 1b WT; 0.56 nM in the assay on HCV replicon 1b Y93H; 0.004 nM in the assay with HCV replicon 2a WT; 0.323 nM in the assay with HCV replicon 3a WT. The compound also gave a 50% effective concentration (EC50) in the assay on HCV replicon 4a WT of 0.044 nM.
As for `COC(=O)N[C@H](C(=O)N1CCC[C@H]1c1ncc(-c2cc3c4c(c2)Oc2ccc(-c5cnc([C@@H]6CCCN6C(=O)[C@@H](NC(=O)OC)C(C)C)[nH]5)cc2N4CC3)[nH]1)C(C)C` [Compound 6, Methyl [(2S)-1-{(2S)-2-[5-(4-{2-[(2S)-1-{(2S)-2-[(methoxycarbonyl)amino]-3-methylbutanoyl}pyrrolidin-2-yl]-1H-imidazol-5-yl}-1,2-dihydropyrrolo[3,2,1-kl]phenoxazin-9-yl)-1H-imidazol-2-yl]pyrrolidin-1-yl}-3-methyl-1-oxobutan-2-yl]carbamate], the 50% effective concentration (EC50) with HCV replicon 1a WT was found to be 0.037 nM; in the assay with HCV replicon 1a Y93H, 43.5 nM; with HCV replicon 1b WT, 0.005 nM; in the assay on HCV replicon 1b Y93H, 0.303 nM; in the assay on HCV replicon 2a WT, 0.011 nM; in the assay on HCV replicon 2b WT it was 18.9 nM. Besides, the EC50 in the assay on HCV replicon 3a WT and in the assay on HCV replicon 4a WT was 0.22 nM in each case.
For `COC(=O)N[C@H](C(=O)N1CCC[C@H]1c1ncc(-c2ccc3c(c2)Oc2ccc(-c4cnc([C@@H]5CCCN5C(=O)[C@@H](NC(=O)OC)C(C)C)[nH]4)c4cnn-3c24)[nH]1)C(C)C` [Compound 10, Methyl [(2S)-1-{(2S)-2-[5-(3-{2-[(2S)-1-{(2S)-2-[(methoxycarbonyl)amino]-3-methylbutanoyl}pyrrolidin-2-yl]-1H-imidazol-5-yl}pyrazolo[4,5,1-kl]phenoxazin-8-yl)-1 H-imidazol-2-yl]pyrrolidin-1-yl}-3-methyl-1-oxobutan-2-yl]carbamate], the EC50 in the assay on HCV replicon 1a WT worked out at 0.027 nM; in the assay with HCV replicon 1a Y93H it was 35.1 nM; with HCV replicon 1b WT, 0.005 nM; in the assay on HCV replicon 2a WT it was 0.003 nM; with HCV replicon 2b WT, 49 nM; in the assay with HCV replicon 3a WT, 0.69 nM. The EC50 in the assay with HCV replicon 4a WT was 0.37 nM.
`COC(=O)N[C@H](C(=O)N1CCC[C@H]1c1ncc(-c2cc3c4c(c2)Oc2ccc(-c5cnc([C@@H]6CCCN6C(=O)[C@@H](NC(=O)OC)C(C)C)[nH]5)cc2N4CCO3)[nH]1)C(C)C` [Compound 13, Methyl [(2S)-1-{(2S)-2-[5-(5-{2-[(2S)-1-{(2S)-2-[(methoxycarbonyl)amino]-3-methylbutanoyl}pyrrolidin-2-yl]-1H-imidazol-5-yl}-1,2-dihydro[1,4]oxazino[2,3,4-kl]phenoxazin-10-yl)-1H-imidazol-2-yl]pyrrolidin-1-yl}-3-methyl-1-oxobutan-2-yl]carbamate]: the EC50 in the assay with HCV replicon 1a WT amounted to 0.002 nM; with HCV replicon 1a Y93H it was 143 nM; with HCV replicon 1b WT, 0.005 nM; in the assay on HCV replicon 1b Y93H, 19 nM; in the assay with HCV replicon 2a WT, 0.01 nM; in the assay with HCV replicon 2b WT, 19.3 nM. Also, the values for the 50% effective concentration (EC50) with HCV replicon 3a WT and with HCV replicon 4a WT were 1.63 nM and 0.48 nM, respectively.
With `COC(=O)N[C@H](C(=O)N1CCC[C@H]1c1ncc(-c2ccc3c(c2)Oc2ccc(-c4cnc([C@@H]5CCCN5C(=O)[C@@H](NC(=O)OC)C(C)C)[nH]4)c4occ-3c24)[nH]1)C(C)C` [Compound 14, Methyl [(2S)-1-{(2S)-2-[5-(3-{2-[(2S)-1-{(2S)-2-[(methoxycarbonyl)amino]-3-methylbutanoyl}pyrrolidin-2-yl]-1H-imidazol-5-yl}furo[2,3,4-kl]xanthen-8-yl)-1H-imidazol-2-yl]pyrrolidin-1-yl}-3-methyl-1-oxobutan-2-yl]carbamate], the EC50 was found to be 0.011 nM with HCV replicon 1a WT; 31.5 nM in the assay on HCV replicon 1a Y93H; 0.002 nM in the assay on HCV replicon 1b WT; 0.278 nM in the assay on HCV replicon 1b Y93H; 0.002 nM in the assay with HCV replicon 2a WT; 34.5 nM in the assay on HCV replicon 2b WT. The EC50 in the assay on HCV replicon 3a WT amounted to 0.161 nM; in the assay on HCV replicon 4a WT, 0.056 nM.
Turning to `COC(=O)N[C@H](C(=O)N1CCC[C@H]1c1ncc(-c2ccc3c(c2)-n2ccc4cc(-c5cnc([C@@H]6CCCN6C(=O)[C@@H](NC(=O)OC)C(C)C)[nH]5)cc(c42)O3)[nH]1)C(C)C` [Compound 16], the EC50 was 0.1 nM with HCV replicon 1a WT; 50.9 nM in the assay on HCV replicon 1a Y93H; 0.009 nM in the assay with HCV replicon 1b WT; 9.1 nM with HCV replicon 1b Y93H; 0.104 nM in the assay on HCV replicon 2a WT; 9.07 nM with HCV replicon 2b WT. Besides, the results for the EC50 in the assay on HCV replicon 3a WT and in the assay with HCV replicon 4a WT were 9.61 nM and 1.31 nM, respectively.
As for `COC(=O)N[C@H](C(=O)N1CCC[C@H]1c1ncc(-c2ccc3c(c2)Oc2ccc(-c4cnc([C@@H]5CCCN5C(=O)[C@@H](NC(=O)OC)C(C)C)[nH]4)c4c2N3CC4)[nH]1)C(C)C` [Compound 17], the EC50 stood at 0.006 nM in the assay on HCV replicon 1a WT; 19.5 nM with HCV replicon 1a Y93H; 0.001 nM in the assay on HCV replicon 1b WT; 19.6 nM in the assay on HCV replicon 1b Y93H; 0.007 nM in the assay on HCV replicon 2a WT; 19.6 nM in the assay with HCV replicon 2b WT. Moreover, the values for the EC50 in the assay on HCV replicon 3a WT and with HCV replicon 4a WT were 0.067 nM and 0.026 nM, respectively.
For `COC(=O)N[C@H](C(=O)N1CC(F)(F)C[C@H]1c1ncc(-c2ccc3c(c2)Oc2ccc(-c4cnc([C@@H]5CC(F)(F)CN5C(=O)[C@@H](NC(=O)OC)C(C)C)[nH]4)c4c2N3CCC4)[nH]1)C(C)C` [Compound 19], the EC50 stood at 0.1 nM with HCV replicon 1a WT; 0.003 nM in the assay on HCV replicon 1b WT; 0.53 nM in the assay on HCV replicon 2a WT; 122 nM in the assay on HCV replicon 2b WT; 10 nM with HCV replicon 3a WT; 0.17 nM in the assay with HCV replicon 4a WT.
